Measured values reported in patent US9765158B2, “Methods for preparation of fucose-linked site specific conjugates of proteins with toxins, adjuvants, detection labels and pharmacokinetic half life extenders” (Probiogen AG, priority 2011, dated 2017).

Assays:
[1] = tested on: Antibody expressing CHO cells carrying the RMD transgene; assay: Fucose feeding experiment: rescue of core-fucosylation of secreted antibody, PSA lectin blotting; format: cell-based, Chinese hamster; conditions: media and feeds supplemented with 0.03 mM; cells grown 12 days; supernatant lectin blot (FIG. 4)
Description: Currently, Fucose analogs are not routinely used in cell culture and are thus still expensive. In order to identify the most cost efficient fucose analogue concentration, we needed to determine the minimum required amount of fucose analogue that was sufficient to completely rescue the fucosylation status of heterologously expressed antibodies secreted from RMD-co-expressing cells. Antibody expressing CHO cells carrying the RMD transgene were cultured in medium containing varying concentrations of fucose and fed with a feed mix supplemented with that same amount of fucose. Cells were grown for 12 days before harvesting the cell culture supernatant. The supernatants were analysed by lectin blotting using biotinylated PSA lectin (pisum sativum) that specifically recognizes the alpha-1,6-linked core-fucose. Lectin blotting was conducted using the Vecstatin Elite ABC Kit (Vector Labs, USA) according to the manufacturers instructions.

avidin = avidin (Gallus gallus, UniProt P02701); conditions: avidin-biotin complex; cited from earlier work
Chain of avidin (P02701 25-152, species assumed): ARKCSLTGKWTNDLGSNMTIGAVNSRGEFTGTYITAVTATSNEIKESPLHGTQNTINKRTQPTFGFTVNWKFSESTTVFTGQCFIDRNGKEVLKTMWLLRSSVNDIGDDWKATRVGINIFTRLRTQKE

SMILES	rescue of core-fucosylation [1]	Ka (avidin)
C[C@H](O)[C@@H](O)[C@@H](O)[C@H](O)C=O [Fucose]	almost complete rescue	–
O=C(O)CCCC[C@@H]1SC[C@@H]2NC(=O)N[C@@H]21 [biotin]	–	1015 M⁻¹
